{"source": "paper PMC4988499", "about": "“Pinpointing a Mechanistic Switch Between Ketoreduction and “Ene” Reduction in Short‐Chain Dehydrogenases/Reductases” (Angewandte Chemie (Weinheim an Der Bergstrasse, Germany), 2016)", "key": {"[1]": {"target": "T1, IPR (isopiperitenone reductase) (Mentha x piperita, UniProt Q6WAU1)", "T1 construct": "recombinant; NADP+ scavenged from host cells; catalytic Glu238", "T1 sequence (Q6WAU1 whole entry)": "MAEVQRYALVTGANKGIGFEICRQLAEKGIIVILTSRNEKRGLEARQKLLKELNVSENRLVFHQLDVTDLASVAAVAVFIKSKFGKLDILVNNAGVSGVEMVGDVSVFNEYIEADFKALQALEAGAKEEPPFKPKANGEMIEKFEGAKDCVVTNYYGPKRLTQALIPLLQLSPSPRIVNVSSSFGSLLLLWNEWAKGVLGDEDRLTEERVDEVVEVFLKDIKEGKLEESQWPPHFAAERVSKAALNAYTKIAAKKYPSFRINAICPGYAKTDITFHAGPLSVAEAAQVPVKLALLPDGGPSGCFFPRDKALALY", "test": "X-ray crystal structure", "assay_type": "binding"}, "[2]": {"target": "T2, MNMR ((−)‐menthone:(+)‐neomenthol reductase) (Mentha x piperita, UniProt Q06ZW2)", "T2 construct": "recombinant; catalytic Tyr244", "T2 sequence (Q06ZW2 entry or part of it)": "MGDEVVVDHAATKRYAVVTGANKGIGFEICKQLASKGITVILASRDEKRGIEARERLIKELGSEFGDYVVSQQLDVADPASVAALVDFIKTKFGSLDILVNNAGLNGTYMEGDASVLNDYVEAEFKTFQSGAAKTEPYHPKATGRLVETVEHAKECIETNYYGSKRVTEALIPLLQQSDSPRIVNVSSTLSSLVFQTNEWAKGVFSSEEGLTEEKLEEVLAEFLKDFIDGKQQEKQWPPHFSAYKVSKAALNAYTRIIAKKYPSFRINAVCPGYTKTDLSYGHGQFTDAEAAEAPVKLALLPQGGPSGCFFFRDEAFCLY", "test": "X-ray crystal structure (soaking)", "assay_type": "binding", "conditions": "coenzyme site"}}}
{"molecule": "NC(=O)c1ccc[n+]([C@@H]2O[C@H](COP(=O)(O)OP(=O)(O)OC[C@H]3O[C@@H](n4cnc5c(N)ncnc54)[C@H](OP(=O)(O)O)[C@@H]3O)[C@@H](O)[C@H]2O)c1", "note": "[NADP^+]", "values": [{"measurement": "X-ray crystal structure", "setting": "[1]; scavenged from expression host", "value": "clear density in the F0−Fc map for NADP^+"}, {"measurement": "X-ray crystal structure (soaking)", "setting": "[2]", "value": "A coenzyme‐bound MNMR structure was obtained by soaking crystals with NADP^+"}]}
{"molecule": "CC1=C(C=O)C(C)(C)CCC1", "note": "[β‐cyclocitral]", "values": [{"measurement": "X-ray crystal structure", "setting": "[1]; active site, non-substrate, with NADP+", "value": "The IPR–β‐cyclocitral co‐crystal structure shows the ligand binds in a non‐active conformation"}]}
